{"source": "patent US20200170975A1", "about": "(Strongbridge Dublin Limited, priority 2018, published 2020)", "key": {"[1]": {"target": "T1, BCRP (Homo sapiens, UniProt Q9UNQ0)", "T1 sequence (Q9UNQ0 1-655)": "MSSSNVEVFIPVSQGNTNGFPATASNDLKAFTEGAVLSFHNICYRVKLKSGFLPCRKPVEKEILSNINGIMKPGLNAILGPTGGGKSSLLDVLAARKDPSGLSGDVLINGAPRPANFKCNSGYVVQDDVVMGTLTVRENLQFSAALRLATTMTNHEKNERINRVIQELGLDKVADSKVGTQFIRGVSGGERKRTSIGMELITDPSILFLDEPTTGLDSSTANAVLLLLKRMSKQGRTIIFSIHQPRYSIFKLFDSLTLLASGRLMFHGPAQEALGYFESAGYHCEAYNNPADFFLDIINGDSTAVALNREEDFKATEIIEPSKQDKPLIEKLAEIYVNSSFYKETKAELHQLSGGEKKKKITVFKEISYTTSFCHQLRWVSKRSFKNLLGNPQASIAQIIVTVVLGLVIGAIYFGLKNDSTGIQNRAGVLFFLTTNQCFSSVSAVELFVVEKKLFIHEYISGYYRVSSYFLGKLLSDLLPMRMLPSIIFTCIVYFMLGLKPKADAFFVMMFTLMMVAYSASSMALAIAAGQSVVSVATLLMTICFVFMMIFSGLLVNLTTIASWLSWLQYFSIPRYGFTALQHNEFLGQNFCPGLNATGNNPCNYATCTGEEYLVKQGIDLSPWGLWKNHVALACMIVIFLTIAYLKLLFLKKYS", "assay": "BCRP inhibition: bidirectional transport of prazosin across MDCKII-BCRP and control MDCKII cells", "description": "MDCKII P-gp, MDCKII BCRP and control MDCKII cells were purchased from the Netherlands Cancer Institute."}, "[2]": {"target": "MATE2-K (Homo sapiens, UniProt Q86VL8)", "sequence (Q86VL8 1-566 isoform Q86VL8-3)": "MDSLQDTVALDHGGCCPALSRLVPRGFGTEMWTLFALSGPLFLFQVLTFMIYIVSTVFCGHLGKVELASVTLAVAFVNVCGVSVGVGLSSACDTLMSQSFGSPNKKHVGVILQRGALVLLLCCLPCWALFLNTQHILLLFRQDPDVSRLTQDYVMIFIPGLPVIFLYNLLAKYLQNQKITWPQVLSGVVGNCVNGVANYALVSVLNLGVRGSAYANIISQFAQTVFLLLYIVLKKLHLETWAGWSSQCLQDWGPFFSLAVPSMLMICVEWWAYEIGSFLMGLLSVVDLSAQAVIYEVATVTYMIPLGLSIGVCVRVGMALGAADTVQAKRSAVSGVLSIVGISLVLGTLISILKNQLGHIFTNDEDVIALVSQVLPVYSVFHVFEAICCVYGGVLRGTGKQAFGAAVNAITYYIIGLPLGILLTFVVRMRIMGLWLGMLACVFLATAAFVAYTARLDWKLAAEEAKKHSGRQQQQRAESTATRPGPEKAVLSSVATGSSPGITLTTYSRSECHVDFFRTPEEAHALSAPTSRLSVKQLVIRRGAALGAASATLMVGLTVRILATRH", "conditions": "[14C]-Metformin 10 μM", "protocol": "(§1) [^14C]-Metformin (1 mM) was provided as a solid and was prepared in Hank's balanced salt solution (HBSS).\n(§2) Cells were plated onto standard 24-well tissue culture plates in cell culture medium 1 to 3 days before the experiment. MATE1 and MATE2-K and control cells were incubated with butyric acid (10 mM) for 24 hours before the experiment to inhibit suppression of the transporter."}, "[3]": {"target": "T2, MATE1 (Homo sapiens, UniProt Q96FL8)", "T2 sequence (Q96FL8 1-570)": "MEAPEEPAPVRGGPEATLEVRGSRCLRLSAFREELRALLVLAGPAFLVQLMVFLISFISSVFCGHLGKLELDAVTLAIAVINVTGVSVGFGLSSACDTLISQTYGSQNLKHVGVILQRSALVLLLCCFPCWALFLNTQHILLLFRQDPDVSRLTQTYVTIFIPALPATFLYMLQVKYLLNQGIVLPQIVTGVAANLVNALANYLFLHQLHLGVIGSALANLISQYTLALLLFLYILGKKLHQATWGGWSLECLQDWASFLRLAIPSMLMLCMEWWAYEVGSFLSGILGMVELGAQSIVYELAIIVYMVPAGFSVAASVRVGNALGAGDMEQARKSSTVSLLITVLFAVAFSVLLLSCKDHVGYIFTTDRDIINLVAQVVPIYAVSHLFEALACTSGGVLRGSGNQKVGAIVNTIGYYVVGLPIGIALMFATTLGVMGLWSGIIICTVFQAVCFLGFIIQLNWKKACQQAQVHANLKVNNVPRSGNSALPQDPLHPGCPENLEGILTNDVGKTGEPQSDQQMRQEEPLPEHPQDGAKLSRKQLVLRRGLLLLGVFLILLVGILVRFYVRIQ", "protocol": "as §1, §2"}, "[4]": {"target": "P-gp (Homo sapiens, UniProt P08183)", "sequence (P08183 whole entry)": "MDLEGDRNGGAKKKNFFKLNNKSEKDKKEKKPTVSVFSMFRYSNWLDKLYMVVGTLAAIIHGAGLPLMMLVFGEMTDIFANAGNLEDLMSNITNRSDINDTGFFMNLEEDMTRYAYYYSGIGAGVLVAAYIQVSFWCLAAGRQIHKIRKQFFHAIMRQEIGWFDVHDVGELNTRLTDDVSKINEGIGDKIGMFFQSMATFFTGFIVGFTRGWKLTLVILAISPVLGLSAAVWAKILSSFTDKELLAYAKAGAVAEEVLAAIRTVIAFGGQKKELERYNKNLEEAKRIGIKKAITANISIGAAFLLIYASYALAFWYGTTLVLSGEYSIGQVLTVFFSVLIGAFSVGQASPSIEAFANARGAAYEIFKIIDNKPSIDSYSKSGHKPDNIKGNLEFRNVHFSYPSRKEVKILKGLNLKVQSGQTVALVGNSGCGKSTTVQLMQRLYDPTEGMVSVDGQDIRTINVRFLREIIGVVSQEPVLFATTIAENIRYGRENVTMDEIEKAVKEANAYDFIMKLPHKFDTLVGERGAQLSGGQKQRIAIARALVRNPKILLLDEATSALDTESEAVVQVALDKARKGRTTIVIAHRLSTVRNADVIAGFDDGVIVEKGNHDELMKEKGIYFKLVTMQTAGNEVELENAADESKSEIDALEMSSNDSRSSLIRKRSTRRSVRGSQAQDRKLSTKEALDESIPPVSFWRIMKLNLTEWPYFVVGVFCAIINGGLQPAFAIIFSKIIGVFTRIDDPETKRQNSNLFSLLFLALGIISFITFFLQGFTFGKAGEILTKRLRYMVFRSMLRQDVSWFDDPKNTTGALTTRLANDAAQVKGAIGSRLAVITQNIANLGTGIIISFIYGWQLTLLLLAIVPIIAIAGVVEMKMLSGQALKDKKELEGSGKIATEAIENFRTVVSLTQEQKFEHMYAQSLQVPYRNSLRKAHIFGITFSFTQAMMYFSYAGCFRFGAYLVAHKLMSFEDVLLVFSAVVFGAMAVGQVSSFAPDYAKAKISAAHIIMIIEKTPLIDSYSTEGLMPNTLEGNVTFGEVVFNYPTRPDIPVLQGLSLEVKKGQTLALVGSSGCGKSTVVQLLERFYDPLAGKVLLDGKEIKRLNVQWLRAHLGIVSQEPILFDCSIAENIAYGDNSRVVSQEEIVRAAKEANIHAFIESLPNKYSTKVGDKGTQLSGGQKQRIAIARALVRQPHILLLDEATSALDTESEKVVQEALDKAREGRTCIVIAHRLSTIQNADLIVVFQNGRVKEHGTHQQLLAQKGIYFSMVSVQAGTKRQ", "assay": "P-gp inhibition: bidirectional transport of digoxin across Caco-2 cells"}}, "note": "Where two headings read alike, the source gives them in different places.", "data": [{"smiles": "Cc1cccc(C)c1OCC(=O)N[C@@H](Cc1ccccc1)[C@@H](O)C[C@H](Cc1ccccc1)NC(=O)[C@H](C(C)C)N1CCCNC1=O", "note": "[Lopinavir]", "values": [{"measurement": "Papp Apical to basal (Average ± SD)", "setting": "[1]", "result": "3.23e-05", "unit": "cm/s"}, {"measurement": "Papp Basal to apical (Average ± SD)", "setting": "[1]", "result": "37.6 ± 1.6 ×10^−6 cm/sec"}, {"measurement": "Papp Apical to basal (Average ± SD)", "setting": "[1]; MDCK", "result": "13.3 ± 10.0 ×10^−6 cm/sec"}, {"measurement": "Papp Basal to apical (Average ± SD)", "setting": "[1]; MDCK", "result": "20.9 ± 4.7 ×10^−6 cm/sec"}]}, {"smiles": "CCc1nc(N)nc(N)c1-c1ccc(Cl)cc1", "note": "[Pyrimethamine]", "values": [{"measurement": "% control", "setting": "[2]; inhibitor 0.3 μM", "result": 50.6, "unit": "%"}, {"measurement": "% control", "setting": "[3]; HEK293 cells, inhibitor 0.1 μm", "result": 14.2, "unit": "%"}]}, {"smiles": "C/C=C/C[C@@H](C)C(=O)[C@H]1C(=O)N[C@@H](C(C)C)C(=O)N(C)CC(=O)N(C)[C@@H](CC(C)C)C(=O)N[C@@H](C(C)C)C(=O)N(C)[C@@H](CC(C)C)C(=O)N[C@@H](C)C(=O)N[C@H](C)C(=O)N(C)[C@@H](CC(C)C)C(=O)N(C)[C@@H](CC(C)C)C(=O)N(C)[C@@H](C(C)C)C(=O)N1C", "note": "[Valspodar]", "values": [{"measurement": "Papp A:B (Average ± SD)", "setting": "[4]", "result": "9.12 ± 1.34 ×10^−6 cm/sec"}, {"measurement": "Papp B:A (Average ± SD)", "setting": "[4]", "result": "10.0 ± 2.5 ×10^−6 cm/sec"}]}, {"smiles": "CN/C(=N/CCSCc1nc[nH]c1C)NC#N", "note": "[Cimetidine]", "values": [{"measurement": "Uptake, MATE2-K (Average ± SD)", "setting": "[2]; MATE2-K HEK293 cells, inhibitor 300 μM", "result": "32.3 ± 11.7", "unit": "pmol/mg protein"}, {"measurement": "% control", "setting": "[2]; inhibitor 300 μM", "result": 18.1, "unit": "%"}, {"measurement": "Background corrected uptake rate", "setting": "[2]; inhibitor 300 μM", "result": 4.99, "unit": "pmol/mg/min"}, {"measurement": "Uptake, Control (Average ± SD)", "setting": "[2]; control HEK293 cells, inhibitor 300 μM", "result": "7.34 ± 0.20", "unit": "pmol/mg protein"}, {"measurement": "% control", "setting": "[3]; HEK293 cells, inhibitor 10 μm", "result": 19.3, "unit": "%"}, {"measurement": "Background corrected uptake rate", "setting": "[3]; HEK293 cells, inhibitor 10 μm", "result": 16.0, "unit": "pmol/mg/min"}, {"measurement": "Uptake, MATE1 (Average ± SD)", "setting": "[3]; MATE1 HEK293 cells, inhibitor 10 μm", "result": "85.2 ± 7.8", "unit": "pmol/mg protein"}, {"measurement": "Uptake, Control (Average ± SD)", "setting": "[3]; control HEK293 cells, inhibitor 10 μm", "result": "5.20 ± 0.63", "unit": "pmol/mg protein"}]}]}
